Laboratory results published in EP0840602B1, “USE OF A RETINOID FOR PREPARING AN ANTIBACTERIAL DRUG” (Pierre Fabre Dermo-Cosmetique, priority 1995, dated 1997).

Experiments:
St. aureus [1] = assay: Minimal bactericidal concentration (CMB), subculture of the microplate on trypticase soy agar; assay type: cell-based, Staphylococcus aureus; conditions: subculture 24-48 h at 32° C, second line of each compound in the table
Procedure: (§1) • Staphylococcus aureus 6538 P • Staphylococcus aureus de pathologies cutanées isolées de l'hôpital Rangueil Toulouse - (France)
(§2) • . Gélose Trypticase soja (Biomérieux)
(§3) Les solutions-mère des produits cités ci-dessous ont été préparées dans l'alcool puis dissoutes dans l'eau distillée stérile de façon à être en final à 200 µg/ml et environ 10° éthanolique (sous lumière jaune). • . Rétinal all Trans • . Rétinal 9 Cis (Sigma R 5754 - lot 62 H 84 43) • . Rétinal 13 Cis (Sigma R 6256 - lot 81 H 8440)
(§4) Le repiquage de la microplaque A sur une gélose trypticase soja préalablement coulée, permet après culture de 24-48 h à 32° C, la lecture de la concentration CMB = plus petite concentration ne permettant pas de croissance sur la gélose.

St. aureus [2] = assay: Minimal inhibitory concentration (CMI), broth microdilution in microplates; assay type: cell-based, Staphylococcus aureus; conditions: 10^6 germes par ml, 24 h at 32° C, first line of each compound in the table
Procedure: as §1
• . Bouillon Trypticase soja (Biomérieux)
as §3
(§5) Une distribution de 100 µl de bouillon Trypticase soja est réalisée dans chaque microcupule de la microplaque stérile (A).
(§6) Un témoin stérilité du milieu et un autre témoin de la vigueur de la souche sont réalisés en parallèle sur la microplaque.
(§7) L'ensemencement de la microplaque (A) a lieu sous la hotte après préparation de l'inoculum bactérien comme suit :
(§8) Les souches ayant été préalablement repiquées la veille sur gélose Trypticase soja, un inoculum 10^8 germes/ml est dispersé dans l'eau distillée stérile puis agité au vortex.
(§9) Les billes de verre assurant une bonne dispersion des souches, la mesure de la densité permet de préparer un inoculum adéquat par rapport à un étalonnage pré-établi et validé.
(§10) La répartition de la souche a lieu dans une deuxième microplaque (B) stérile par distribution de 100 µl d'inoculum par microcupule.
(§11) L'ensemencement a lieu par un repiquage de la microplaque (B) vers la microplaque (A), il se réalise ainsi une dilution au 1/100 de l'inoculum : la microplaque A contenant 10^6 germes par ml, peut être mise à l'étuve 24 h à 32° C.
(§12) La lecture de la plus grande dilution donnant lieu à une clarté identique au témoin stérilité du milieu, constitue la concentration minimale inhibitrice.

St. epidermis [3] = assay: Minimal bactericidal concentration (CMB), subculture of the microplate on trypticase soy agar; assay type: cell-based; conditions: subculture 24-48 h at 32° C, second line of each compound in the table
Procedure: as §2, §3, §4

St. epidermis [4] = assay: Minimal inhibitory concentration (CMI), broth microdilution in microplates; assay type: cell-based; conditions: 10^6 germes par ml, 24 h at 32° C, first line of each compound in the table
Procedure: as §3, §5, §6, §7, §8, §9, §10, §11, §12

St. aureus 6538 P = assay: Bactericidal kinetics and D. value; assay type: cell-based, Staphylococcus aureus
Procedure: Le niveau d'efficacité, de l'ordre du microgramme, a été prouvé pour des souches de staphylocoques plurirésistantes notamment aux aminosides, tétracyclines et macrolides. L'efficacité bactéricide a pu être chiffrée. En effet, le rétinal à 0,1% a une D. value (temps nécessaire pour faire chuter la population du nombre de germes) sur Staphylococcus aureus 6538 P de 14,8 minutes avec un coefficient de corrélation de 0,999 en ce qui concerne la droite de régression linéaire reliant la population de germes au temps de contact germe-rétinaldéhyde.
La D. value du Rétinal à 0,1 % P/V dans une solution éthanolique à 20 % V/V a été recherchée sur St. aureus 6538 P.
La cinétique des prélèvements microbiens a été réalisée aux temps 15', 30', 60', 4h et 6h. L'inoculum de départ étant de 1,0.10^4 germes par ml, la neutralisation se réalise d'après les temps cités dans du Bouillon Trypticase Soja, supplémenté par 10 % de Tween 80. Le neutralisant a été validé au préalable.

[5] = test system: adhésion des Gram positifs aux cornéocytes; assay: Adhesion of staphylococci to corneocytes according to Cole and Silverberg (1986); assay type: cell-based; conditions: doses infrabactériostatiques
Source text: Le rétinaldéhyde et ses isomères dont le 9 et le 13 cis-rétinaldéhyde possèdent une activité ciblée sur les Gram positifs, en particulier du genre Staphylococcus dont le staphylocoque doré. […] L'efficacité a pu être mise en évidence par le calcul des concentrations minimales inhibitrices et bactéricides sur des souches polyrésistantes issues de prélèvements cutanés isolés en milieu hospitalier et par études de l'adhésion du staphylocoque aux cornéocytes selon Cole et Silverber (1986).
• 1. Thabaut A. et Meyran M. (1989) Activité bactéricide comparée de quatorze antibiotiques sur staphylococcus aureus. Path. Biol. 37 : 321 - 328. • 2. Cole G.W.; Silvergerg N.L (1986) The adherence of staphylococcus aureus to human corneocytes. Arch. Dermatol. 122 : 166 - 169.

staphylococcus aureus = conditions: from reference 1 (Thabaut and Meyran 1989); cited from earlier work

SMILES	CMB (St. aureus [1])	CMI (St. aureus [2])	CMB (St. epidermis [3])	CMI (St. epidermis [4])	also measured
CC1=C(/C=C/C(C)=C\C=C\C(C)=C\C=O)C(C)(C)CCC1 [RETINAL 9 Cis, 9 cis-rétinaldéhyde]	0,0025%	0,0003%	0,0006%	0,0001%	
CC1=C(/C=C/C(C)=C/C=C/C(C)=C\C=O)C(C)(C)CCC1 [RETINAL 13 Cis, 13 cis-rétinaldéhyde]	0,0025%	0,0006%	0,0006%	0,0001%	
CC1=C(/C=C/C(C)=C/C=C/C(C)=C/C=O)C(C)(C)CCC1 [RETINALDEHYDE ALL TRANS, rétinaldéhyde tout trans]	0,0012%	0,0003%	0,0003%	0,0001%	
CC(C=CC=C(C)C=CC1=C(C)CCCC1(C)C)=CC=O [Rétinal, rétinal]					D. value (St. aureus 6538 P; Rétinal 0,1 % P/V in 20 % V/V ethanolic solution, St. aureus 6538 P, linear regression r = 0,99): 14,8 mn; surviving germs, Temps 15 (St. aureus 6538 P; Rétinal 0,1 % P/V in 20 % V/V ethanolic solution, contact 15', starting inoculum 1,0.10^4 germes par ml): 1,4.10^3; surviving germs, Temps 30 (St. aureus 6538 P; Rétinal 0,1 % P/V in 20 % V/V ethanolic solution, contact 30', starting inoculum 1,0.10^4 germes par ml): 1,3.10^2; surviving germs, Temps 60 (St. aureus 6538 P; Rétinal 0,1 % P/V in 20 % V/V ethanolic solution, contact 60', starting inoculum 1,0.10^4 germes par ml): 0; surviving germs, Temps 4h (St. aureus 6538 P; Rétinal 0,1 % P/V in 20 % V/V ethanolic solution, contact 4h, starting inoculum 1,0.10^4 germes par ml): 0; surviving germs, Temps 6h (St. aureus 6538 P; Rétinal 0,1 % P/V in 20 % V/V ethanolic solution, contact 6h, starting inoculum 1,0.10^4 germes par ml): 0; Log, Temps 15 (St. aureus 6538 P; log of surviving germs, Rétinal 0,1 %, contact 15'): 3,15; Log, Temps 30 (St. aureus 6538 P; log of surviving germs, Rétinal 0,1 %, contact 30'): 2,11; D. value (temps nécessaire pour faire chuter la population du nombre de germes) (St. aureus 6538 P; rétinal à 0,1%, Staphylococcus aureus 6538 P, coefficient de corrélation 0,999): 14,8 minutes; inhibition de l'adhésion des Gram positifs aux cornéocytes [5]: activité inhibant d'adhésion des Gram positifs aux cornéocytes
CC[C@H]1OC(=O)[C@H](C)[C@@H](O[C@H]2C[C@@](C)(OC)[C@@H](O)[C@H](C)O2)[C@H](C)[C@@H](O[C@@H]2O[C@H](C)C[C@H](N(C)C)[C@H]2O)[C@](C)(O)C[C@@H](C)C(=O)[C@H](C)[C@@H](O)[C@]1(C)O [érythromycine]					temps pour faire chuter la population microbienne de 2 Log 10 (staphylococcus aureus): 48 heures
